Reference: patent US8546524B2, “Smoothened polypeptides and methods of use” (The United States of America, as represented by the …, priority 2006, dated 2013)
No end group written: not given here. *: point of attachment. Myristoyl = CCCCCCCCCCCCCC(=O)*

Key:
SK-Mel2 melanoma cells = format: cell-based; conditions: for inhibitory activity of third loop peptides: comment on Table 5; for IC50: MTT assay, SK-Mel2 melanoma cells, 48 hour exposure, Table 4; for inhibitory activity on SK-Mel2 melanoma cells: 48 hours of exposure, second intracellular loop peptides, comment on Table 4; for inhibition of proliferation of SK-Mel2 cells: 60 hours exposure, FIG. 6
Procedure: (§1) DU145 prostate cancer cells, PC3 prostate cancer cells, MCF7 breast cancer cells, or Mel-SK-2 melanoma cells (American Type Culture Collection, Manassas, Va.) are inoculated in 96 well plates at 200-400 cells/well density in DMEM medium containing 10% fetal bovine serum and allowed to attach for 24 hours. Cell suspension of 100 μl is used for each well. Polypeptides in 100 μl medium at 2× concentration are added the next day and kept in the CO2 incubator for 48 hours While the polypeptides are added at a final concentration between 1 nM and 10 μM, assays are performed on extra reference plates to determine the cell population density at time 0 (T0). The cells are stained with Promega Non-Radioactive Cell Proliferation Assay Kit (MTT) according to manufacture's protocol. The absorbance of the wells is determined at 544 nm by a FLUOstar/POLARstar® Galaxy MicroplateReader (BMG Labtechnologies GmbH, Germany). The assays are performed on control (C) and test (T) cells. Cellular responses are calculated from the data using the following formula: 100×[(T−T0)/(C−T0)] for T>T0 and 100×[(T−T0)/T0] for T<T0.
(§2) Polypeptides based on the second or third intracellular loop of SMO (SMOi2 or i3 polypeptides) (as shown in Table 1) are synthesized as described in Example 1 and are tested as described in Example 2 using MCF-7 breast cancer cells or SK-Mel2 melanoma cells. The IC50 of each peptide as determined by the MTT assay in SK-Mel2 melanoma cells after 48 hour exposure to the peptide is shown in Tables 4 and 5.
Peptides SMOi2-18 and SMOi2-21 are made as essentially described in Example 1 and tested as described in Example 2 using SK-Mel2 cells. Cells are exposed to polypeptides or peptidomimetics for 60 hours.

[1] = system: MCF-7 breast cancer cells; assay: MTT growth inhibition assay in MCF-7 breast cancer cells; format: cell-based; conditions: 48-hour treatment, FIG. 1 / FIG. 3
Procedure: as §1, with “The cells are stained with Promega Non-Radioactive Cell Proliferation Assay Kit (MTT) according to manufacture's protocol.” left out, “The assays are performed on control (C) and test (T) cells.” left out, “T<T0. […]” for “T<T0.”
as §2

[2] = system: gastric adenocarcinoma cells; assay: Growth inhibition of gastric adenocarcinoma cells (viable cell mass); format: cell-based; conditions: 5 or 10 μM, FIG. 2
[3] = Critical micelle concentration by WMC-77 fluorescence; format: physicochemical; conditions: deionized water, 25° C., WMC-77 0.4 μM
Source text: To monitor the formation of hydrophobic nanoparticles, a fluorescing imidazoacridone compound WMC-77 (5-{3-[4-(aminopropyl)-piperazin-1-yl]-propylamino}-2,10b-diaza-aceanthrylen-6-one) is used (Tarasov et al., Photochem. Photobiol. 78: 313-322 (2003)). Compounds like WMC-77 tend to enhance their intrinsic fluorescence dramatically when entering an amphiphilic environment of biological macromolecules like DNA (Tarasova et al., 2003, supra) or hydrophobic core of typical micelles (Tarasov et al., Photochem. Photobiol. 70: 568-578 (1999)). […] Atmospheric oxygen quenching is found to be unimportant, since similar values of fluorescence intensity from BIAs are obtained before and after nitrogen purging. […] Uncorrected fluorescence emission spectra are obtained at 25° C. on a Single Photon Counting Spectrofluorometer FLUOROMAX®-2 (Horiba Jobin Yvon, Edison, N.J.). […]
The increase of peptide/fluorophore ratio causes the permanent increase of WMC-77 fluorescence emission intensity, leveling of at ˜2 μM. The changes in the fluorescence signal are similar to those observed during transfer of imidazoacridones from aqueous to non-polar media such as organic solvents (Tarasov et al., 1999, supra), to the cores of classic surfactant micelles (Tarasov et al., 1999, supra) or upon binding to DNA (Tarasov et al., 2003, supra). […]

## Ac-LLSEKAASKINETMLRK-[…]ε-Pal [SMO i3-6]
SK-Mel2 melanoma cells
  inhibitory activity of third loop peptides: among the most potent polypeptides tested

## PalRGVMTLFSIKSNHPGLLS [SMO i3-8]
SK-Mel2 melanoma cells
  inhibitory activity of third loop peptides: among the most potent polypeptides tested

## Ac-LTYAWHTSFKALGTTYQPLSGKTSYK- ε-Pal [SMOi2-4]
SK-Mel2 melanoma cells
  IC50: 1000 ± 100 nM

## WFVVLTYAWHTSFKAL [SMOi2-15]
SK-Mel2 melanoma cells
  inhibitory activity on SK-Mel2 melanoma cells: does not overcome the loss of activity
  IC50: > 5000 nM

## Pal-TYAWHTSFKAL [SMOi2-10]
SK-Mel2 melanoma cells
  inhibitory activity on SK-Mel2 melanoma cells: potent inhibitors

## Pal-LTYAWHTSFK [SMOi2-12]
SK-Mel2 melanoma cells
  inhibitory activity on SK-Mel2 melanoma cells: most potent inhibitors

## SEKAASKINETMLRK-ε-Pal [SMO i3-12]
SK-Mel2 melanoma cells
  inhibitory activity of third loop peptides: among the most potent polypeptides tested

## PalLFSIKSNHPGLLSEKAASKINETMLR [SMO i3-4]
SK-Mel2 melanoma cells
  inhibitory activity of third loop peptides: significantly less active

## Ac-LAKFSTHWAYTLK-ε-Pal (all D-) [SMOi2-16]
SK-Mel2 melanoma cells
  IC50: 6 ± 0.5 nM

## PalRGVMTLFSIKSNHPGLLSEKAASKINETMLR [SMO i3-1]
[1]
  inhibition of growth of MCF-7 cells: most significant effect on cell growth
SK-Mel2 melanoma cells
  inhibitory activity of third loop peptides: among the most potent polypeptides tested
[2]
  inhibition of growth of gastric adenocarcinoma cells compared with cyclopamine: as well or better than cyclopamine

## Ac-YAWHTSFKALGTTYQPLSGKTSYK- εPal [SMOi2-5]
SK-Mel2 melanoma cells
  IC50: 1000 ± 100 nM

## Ac-GTTYQPLSGKTSYK-εPal [SMOi2-7]
SK-Mel2 melanoma cells
  inhibitory activity on SK-Mel2 melanoma cells: potent inhibitors

## Pal-LTYAWHTSFKA [SMOi2-11]
SK-Mel2 melanoma cells
  inhibitory activity on SK-Mel2 melanoma cells: most potent inhibitors

## Pal-LTYABpaHTSFKAL-Hcy-Biotin [SMOi2-21]
SK-Mel2 melanoma cells
  inhibitory activity on SK-Mel2 melanoma cells: totally abolishes the activity
  inhibition of proliferation of SK-Mel2 cells: even more potent than that of the polypeptide counterpart, SMOi2-8

## PalRGVMTLFSIKSNHPGLLSEKA [SMO i3-2]
SK-Mel2 melanoma cells
  inhibitory activity of third loop peptides: among the most potent polypeptides tested

## Ac-KFSTHWAYTLK- εPal (all D-) [SMOi2-20]
SK-Mel2 melanoma cells
  inhibitory activity on SK-Mel2 melanoma cells: most potent inhibitors
  IC50: 0.3 ± 0.1 nM

## Myristoyl-LTYAWHTSFKAL [SMOi2-26]
SK-Mel2 melanoma cells
  inhibitory activity on SK-Mel2 melanoma cells: most potent inhibitors
SK-Mel2 melanoma cells; myristoyl instead of palmitoyl residue
  potency relative to palmitoyl peptide (fold less potent): 2.5 fold

## Pal-LTYAWHTSFKAL [SMOi2-8]
[3]
  critical micelle concentration: 0.5 to 1 µM
SK-Mel2 melanoma cells
  inhibitory activity on SK-Mel2 melanoma cells: most potent inhibitors

## PalLTYAWHTSFKAL (All D) [SMOi2-24]
SK-Mel2 melanoma cells
  inhibitory activity on SK-Mel2 melanoma cells: most potent inhibitors

## Pal-LTYAWHTSFKALGTTYQP [SMOi2-6]
SK-Mel2 melanoma cells
  inhibitory activity on SK-Mel2 melanoma cells: potent inhibitors

## Ac-AKFSTHWAYTLK-εPal (all D-) [SMOi2-17]
SK-Mel2 melanoma cells
  IC50: 0.4 ± 0.1 nM

## Ac-LTYAWHTSFKAL [SMOi2-9]
SK-Mel2 melanoma cells
  inhibitory activity on SK-Mel2 melanoma cells: significantly reduces the inhibitory activity

## Pal-LTYAWHTSFKALGTTYQPLSGKYSY [SMOi2-1]
[1]
  inhibition of growth of MCF-7 cells: inhibit the growth of MCF-7 cells
[2]
  inhibition of growth of gastric adenocarcinoma cells compared with cyclopamine: as well or better than cyclopamine

## VWFVVLTYAWHTSFKAL [SMOi2-14]
SK-Mel2 melanoma cells
  inhibitory activity on SK-Mel2 melanoma cells: does not overcome the loss of activity
  IC50: > 5000 nM

## Pal-LTYABpaHTSFKAL [SMOi2-18]
SK-Mel2 melanoma cells
  inhibitory activity on SK-Mel2 melanoma cells: fairly active
  inhibition of proliferation of SK-Mel2 cells: even more potent than that of the polypeptide counterpart, SMOi2-8

## Pal-LTYAWHTSFKALGTTYQPLSGKTSYK- ε-Pal [SMOi2-23]
SK-Mel2 melanoma cells
  inhibitory activity on SK-Mel2 melanoma cells: most potent inhibitors
